The test system of series [1] is HEK293. Kind of series: Selectivity index, ratio of IC50 for human HDAC1 expressed in HEK293/T17 cells (unknown origin) to human HDAC6 expressed in HEK293/T17 cells. It is filed as cell-based.
Series [2] concerns HEK293. Put plainly: Selectivity index, ratio of IC50 for human HDAC3 expressed in HEK293/T17 cells (unknown origin) to human HDAC6 expressed in HEK293/T17 cells. It is filed as cell-based.
The subject of series [3] is HEK293. Kind of series: Selectivity index, ratio of IC50 for human HDAC6 expressed in HEK293/T17 cells (unknown origin) to human HDAC6 expressed in HEK293/T17 cells. Format: cell-based.
In series [4] the test system is HEK293. Kind of series: Selectivity index, ratio of IC50 for human HDAC9 expressed in HEK293/T17 cells (unknown origin) to human HDAC6 expressed in HEK293/T17 cells. Format: cell-based.
A short description of series [5]: Half life in SGF by LC-MS/MS analysis. It is filed as ADME.
Series [6] in a line: Half life in human plasma at 10 uM by LC-MS/MS analysis. It is filed as ADME, cell-free.
Series [7] is described as follows: Half life in rat liver microsome at 10 uM by LC-MS/MS analysis. Format: ADME. The conditions noted are these: liver microsomes.
For series [8], the target named is T1, Protein deacetylase HDAC6 (Homo sapiens) (UniProt Q9UBN7).
T1 sequence (whole entry): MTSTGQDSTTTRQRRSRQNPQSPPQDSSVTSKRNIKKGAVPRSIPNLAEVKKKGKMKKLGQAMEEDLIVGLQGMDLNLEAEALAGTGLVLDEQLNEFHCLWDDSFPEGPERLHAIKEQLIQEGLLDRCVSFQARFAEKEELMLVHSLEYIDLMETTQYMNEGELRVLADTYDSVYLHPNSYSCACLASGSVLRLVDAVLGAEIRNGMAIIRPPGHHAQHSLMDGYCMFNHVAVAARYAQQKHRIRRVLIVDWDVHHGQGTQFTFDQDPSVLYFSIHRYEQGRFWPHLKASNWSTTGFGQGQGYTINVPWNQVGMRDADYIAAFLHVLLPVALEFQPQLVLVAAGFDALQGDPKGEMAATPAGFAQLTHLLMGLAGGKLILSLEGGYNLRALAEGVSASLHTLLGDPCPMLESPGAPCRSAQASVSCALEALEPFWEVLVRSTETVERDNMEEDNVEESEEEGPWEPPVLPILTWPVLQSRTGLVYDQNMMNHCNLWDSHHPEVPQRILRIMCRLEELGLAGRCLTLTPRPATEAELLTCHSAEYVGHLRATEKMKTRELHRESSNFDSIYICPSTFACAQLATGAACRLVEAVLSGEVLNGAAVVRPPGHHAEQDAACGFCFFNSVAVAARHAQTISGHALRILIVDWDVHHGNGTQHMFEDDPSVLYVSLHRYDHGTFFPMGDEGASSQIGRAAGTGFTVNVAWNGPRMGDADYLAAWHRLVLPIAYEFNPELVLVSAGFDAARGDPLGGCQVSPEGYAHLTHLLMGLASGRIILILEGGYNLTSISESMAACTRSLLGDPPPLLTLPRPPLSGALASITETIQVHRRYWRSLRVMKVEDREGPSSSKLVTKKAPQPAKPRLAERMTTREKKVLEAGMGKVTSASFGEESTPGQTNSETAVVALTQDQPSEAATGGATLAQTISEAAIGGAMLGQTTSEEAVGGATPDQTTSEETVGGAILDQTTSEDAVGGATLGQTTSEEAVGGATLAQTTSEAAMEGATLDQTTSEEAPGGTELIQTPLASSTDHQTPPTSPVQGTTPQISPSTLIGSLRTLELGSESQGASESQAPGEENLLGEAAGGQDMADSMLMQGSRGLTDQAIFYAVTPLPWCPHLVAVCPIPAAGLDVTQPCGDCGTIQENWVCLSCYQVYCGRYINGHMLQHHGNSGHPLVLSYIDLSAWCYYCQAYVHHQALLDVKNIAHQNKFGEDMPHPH
Kind of series: Inhibition of human HDAC6 in human WM164 cells increase in acetylated alpha-tubulin levels at 0.1 to 10 uM by immunoblot analysis. It is filed as cell-based. The conditions noted are these: dose microM 0.1-10. A general note: In western blotting, separated proteins are transferred to a membrane and probed.

The target of series [9] is Histone deacetylase (Homo sapiens) (UniProt Q13547+O15379+Q9UBN7+Q92769+Q9UQL6+Q8WUI4+Q9BY41+Q96DB2+P56524+Q9UKV0+Q969S8). Put plainly: Inhibition of human HDAC in human WM164 cells increase in acetylated histone H3 levels at 0.1 to 10 uM by immunoblot analysis. The conditions noted are these: dose microM 0.1-10. It is filed as cell-based.
The next series deals with SM1. Kind of series: Potentiation of antitumor immune response in C57BL/6 mouse harboring mouse SM1 cells assessed as decrease in tumor burden at 25 mg/kg, ip dosed 5 days per week before starting 15 mg/kg, ip anti-PD1 immune checkpoint blockade therapy measured on day 14. It is filed as functional, organism-based. The settings on record: time 14.0 day.
In series [10] the test system is Mus musculus. Kind of series: Immunomodulatory activity in C57BL/6 mouse harboring mouse SM1 cells assessed as increase in M1/M2 macrophages ratio at 25 mg/kg, ip dosed 5 days per week before starting 15 mg/kg, ip anti-PD1 immune checkpoint blockade therapy by flow cytometry. It is filed as functional, organism-based. The settings on record: time 5.0 day/week. For orientation: In flow cytometry, cells or beads pass a laser one at a time.

The subject of series [11] is Mus musculus. Kind of series: Immunomodulatory activity in C57BL/6 mouse harboring mouse SM1 cells assessed as increase in M1/M2 macrophages ratio at 25 mg/kg, ip dosed 5 days per week by flow cytometry. Format: functional, organism-based. The settings on record: time 5.0 day/week.
For series [12], the system named is Mus musculus. Kind of series: Immunomodulatory activity in C57BL/6 mouse harboring mouse SM1 cells assessed as increase in CD8+ central memory cells at 25 mg/kg, ip dosed 5 days per week before starting 15 mg/kg, ip anti-PD1 immune checkpoint blockade therapy by flow cytometry. It is filed as functional, organism-based. The settings on record: time 5.0 day/week.

Series [13] concerns Mus musculus. Kind of series: Immunomodulatory activity in C57BL/6 mouse harboring mouse SM1 cells assessed as effect on CD4+ T cells at 25 mg/kg, ip dosed 5 days per week by flow cytometry. The conditions noted are these: time 5.0 day/week. Format: functional, organism-based.
In series [14] the test system is Mus musculus. Put plainly: Immunomodulatory activity in C57BL/6 mouse harboring mouse SM1 cells assessed as increase in natural killer cells at 25 mg/kg, ip dosed 5 days per week before by flow cytometry. Format: functional, organism-based. The conditions noted are these: time 5.0 day/week.

Calls of active or inactive are those of the source.

One may read the half-life as the time needed for the level to fall by half in the phase considered. Lower therefore signals rapid decline. As for `NCc1ccc(NC(=O)N(CCCCO)Cc2ccc(C(=O)NO)cc2)cc1`, the Ratio IC50 came out at 293 in the series with HEK293 [1], 880 with HEK293 [2], 1 with HEK293 [3] and 15700 with HEK293 [4]. This compound came in with a half-life in series [5] above 5 h. Further, the values for the half-life at 10 µM in series [6] and in [7] were above 5 h and 2.95 h, respectively. The inhibition result in series [8] was “Dose-dependent effect”. Moreover, the inhibition entry in [9] was “Active”. For the same compound, the TGI entry in the series on SM1 is “Active”. In addition, the result with Mus musculus [10], in the series with Mus musculus [11], in the series with Mus musculus [12] and in the series with Mus musculus [14] was Active. Besides, in the series on Mus musculus [13], the result was inactive.
